What all share (test): biochemical
Format in all cases: binding

In experiment [1] the target is T1, panel of 442 kinases (Homo sapiens, UniProt P08581, Y1235D).
T1 construct: purchased Ambit Biosciences (scanMAXX KINOMEscan)
As to conditions: kinase MET(Y1235D); for remaining activity at 1 µM: read-out: % of control at 1 µM.

In experiment [2] the target is T2, panel of 442 kinases (Homo sapiens, UniProt P51956).
T2 construct: purchased Ambit Biosciences (scanMAXX KINOMEscan)
T2 sequence (P51956 1-506): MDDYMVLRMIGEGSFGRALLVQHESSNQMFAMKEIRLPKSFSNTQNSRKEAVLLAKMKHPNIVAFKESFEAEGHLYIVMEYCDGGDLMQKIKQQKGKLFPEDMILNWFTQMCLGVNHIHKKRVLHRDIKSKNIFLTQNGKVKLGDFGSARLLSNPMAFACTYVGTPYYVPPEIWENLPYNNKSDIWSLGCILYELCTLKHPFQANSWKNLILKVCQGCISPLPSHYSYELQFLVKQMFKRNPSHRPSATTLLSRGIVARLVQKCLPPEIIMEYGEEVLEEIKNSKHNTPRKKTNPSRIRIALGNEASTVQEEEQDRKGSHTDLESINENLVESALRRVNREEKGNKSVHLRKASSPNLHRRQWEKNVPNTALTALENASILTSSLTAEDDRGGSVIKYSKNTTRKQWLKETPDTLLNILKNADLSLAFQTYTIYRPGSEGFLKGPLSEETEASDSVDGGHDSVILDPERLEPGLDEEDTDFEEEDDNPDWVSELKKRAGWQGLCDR
As to conditions: kinase NEK3; for remaining activity at 1 µM: read-out: % of control at 1 µM.

Experiment [3] concerns the target T3, panel of 442 kinases (Homo sapiens, UniProt O14578).
T3 construct: purchased Ambit Biosciences (scanMAXX KINOMEscan)
Particulars: CIT; for remaining activity at 1 µM: read-out: % of control at 1 µM.

Experiment [4] has as its target T4, panel of 442 kinases (Homo sapiens, UniProt Q9Y6M4).
T4 construct: purchased Ambit Biosciences (scanMAXX KINOMEscan)
Particulars: CSNK1G3; for remaining activity at 1 µM: read-out: % of control at 1 µM.

For experiment [5], the target named is T5, panel of 442 kinases (Homo sapiens, UniProt P06213).
T5 construct: purchased Ambit Biosciences (scanMAXX KINOMEscan)
Particulars: kinase INSR; for remaining activity at 1 µM: read-out: % of control at 1 µM.

The target of experiment [6] is T6, panel of 442 kinases (Homo sapiens, UniProt P35916).
T6 construct: purchased Ambit Biosciences (scanMAXX KINOMEscan)
T6 sequence (P35916 25-1363): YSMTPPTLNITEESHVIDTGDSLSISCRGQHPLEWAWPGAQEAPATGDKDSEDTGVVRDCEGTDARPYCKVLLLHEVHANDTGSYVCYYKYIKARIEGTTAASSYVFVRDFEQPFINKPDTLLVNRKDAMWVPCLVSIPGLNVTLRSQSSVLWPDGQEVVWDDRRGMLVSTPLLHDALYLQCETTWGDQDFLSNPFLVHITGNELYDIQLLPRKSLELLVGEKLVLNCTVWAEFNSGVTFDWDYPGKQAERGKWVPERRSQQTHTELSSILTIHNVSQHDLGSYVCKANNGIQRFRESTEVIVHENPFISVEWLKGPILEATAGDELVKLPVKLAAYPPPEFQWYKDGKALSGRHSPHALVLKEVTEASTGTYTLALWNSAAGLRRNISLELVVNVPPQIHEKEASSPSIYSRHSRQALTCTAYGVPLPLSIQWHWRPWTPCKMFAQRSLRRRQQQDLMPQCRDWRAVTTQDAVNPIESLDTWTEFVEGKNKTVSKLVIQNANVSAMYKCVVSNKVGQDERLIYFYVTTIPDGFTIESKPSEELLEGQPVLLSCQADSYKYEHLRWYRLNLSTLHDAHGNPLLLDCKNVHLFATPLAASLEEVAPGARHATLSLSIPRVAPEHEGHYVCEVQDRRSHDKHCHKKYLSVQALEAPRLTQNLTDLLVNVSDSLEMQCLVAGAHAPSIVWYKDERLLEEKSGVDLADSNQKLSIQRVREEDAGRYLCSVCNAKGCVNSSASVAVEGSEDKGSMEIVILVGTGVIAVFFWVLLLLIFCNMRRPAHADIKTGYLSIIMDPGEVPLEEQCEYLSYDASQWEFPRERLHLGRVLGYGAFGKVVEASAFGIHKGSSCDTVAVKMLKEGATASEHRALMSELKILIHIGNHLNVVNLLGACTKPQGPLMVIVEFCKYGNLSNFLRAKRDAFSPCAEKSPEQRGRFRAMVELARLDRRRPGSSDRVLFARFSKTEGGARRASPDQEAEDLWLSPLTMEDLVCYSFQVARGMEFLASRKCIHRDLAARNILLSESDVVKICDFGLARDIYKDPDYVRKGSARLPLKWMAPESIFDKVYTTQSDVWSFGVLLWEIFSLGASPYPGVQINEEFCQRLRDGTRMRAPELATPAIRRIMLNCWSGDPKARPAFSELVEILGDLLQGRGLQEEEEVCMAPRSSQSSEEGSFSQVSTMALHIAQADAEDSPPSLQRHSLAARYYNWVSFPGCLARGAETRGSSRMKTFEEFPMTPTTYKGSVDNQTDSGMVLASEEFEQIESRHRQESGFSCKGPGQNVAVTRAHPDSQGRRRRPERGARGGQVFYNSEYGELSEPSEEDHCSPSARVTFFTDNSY
As to conditions: kinase FLT4; for remaining activity at 1 µM: read-out: % of control at 1 µM.

Experiment [7] deals with T7, panel of 442 kinases (Homo sapiens, UniProt P51617).
T7 construct: purchased Ambit Biosciences (scanMAXX KINOMEscan)
T7 sequence (P51617 whole entry): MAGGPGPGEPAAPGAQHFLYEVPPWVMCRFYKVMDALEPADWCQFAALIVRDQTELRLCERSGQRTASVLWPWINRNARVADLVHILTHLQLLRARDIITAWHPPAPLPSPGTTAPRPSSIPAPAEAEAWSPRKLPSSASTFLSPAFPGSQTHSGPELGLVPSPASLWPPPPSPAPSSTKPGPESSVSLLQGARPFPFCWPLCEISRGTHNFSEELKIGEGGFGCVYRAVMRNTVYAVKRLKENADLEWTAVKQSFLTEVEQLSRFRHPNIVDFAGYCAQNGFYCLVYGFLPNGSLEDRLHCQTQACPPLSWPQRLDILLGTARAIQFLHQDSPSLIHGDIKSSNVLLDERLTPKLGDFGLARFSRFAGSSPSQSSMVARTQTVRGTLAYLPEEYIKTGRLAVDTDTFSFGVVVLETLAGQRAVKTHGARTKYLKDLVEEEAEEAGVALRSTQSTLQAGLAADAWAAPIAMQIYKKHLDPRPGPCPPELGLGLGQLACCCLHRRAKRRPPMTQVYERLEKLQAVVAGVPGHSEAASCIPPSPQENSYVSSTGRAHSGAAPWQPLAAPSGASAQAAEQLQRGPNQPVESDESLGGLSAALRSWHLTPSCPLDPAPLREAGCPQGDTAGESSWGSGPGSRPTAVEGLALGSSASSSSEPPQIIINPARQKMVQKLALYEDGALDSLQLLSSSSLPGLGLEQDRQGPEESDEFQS
As to conditions: kinase IRAK1; for remaining activity at 1 µM: read-out: % of control at 1 µM.

For experiment [8], the target named is T8, panel of 442 kinases (Homo sapiens, UniProt Q8TDC3).
T8 construct: purchased Ambit Biosciences (scanMAXX KINOMEscan)
T8 sequence (Q8TDC3 1-778): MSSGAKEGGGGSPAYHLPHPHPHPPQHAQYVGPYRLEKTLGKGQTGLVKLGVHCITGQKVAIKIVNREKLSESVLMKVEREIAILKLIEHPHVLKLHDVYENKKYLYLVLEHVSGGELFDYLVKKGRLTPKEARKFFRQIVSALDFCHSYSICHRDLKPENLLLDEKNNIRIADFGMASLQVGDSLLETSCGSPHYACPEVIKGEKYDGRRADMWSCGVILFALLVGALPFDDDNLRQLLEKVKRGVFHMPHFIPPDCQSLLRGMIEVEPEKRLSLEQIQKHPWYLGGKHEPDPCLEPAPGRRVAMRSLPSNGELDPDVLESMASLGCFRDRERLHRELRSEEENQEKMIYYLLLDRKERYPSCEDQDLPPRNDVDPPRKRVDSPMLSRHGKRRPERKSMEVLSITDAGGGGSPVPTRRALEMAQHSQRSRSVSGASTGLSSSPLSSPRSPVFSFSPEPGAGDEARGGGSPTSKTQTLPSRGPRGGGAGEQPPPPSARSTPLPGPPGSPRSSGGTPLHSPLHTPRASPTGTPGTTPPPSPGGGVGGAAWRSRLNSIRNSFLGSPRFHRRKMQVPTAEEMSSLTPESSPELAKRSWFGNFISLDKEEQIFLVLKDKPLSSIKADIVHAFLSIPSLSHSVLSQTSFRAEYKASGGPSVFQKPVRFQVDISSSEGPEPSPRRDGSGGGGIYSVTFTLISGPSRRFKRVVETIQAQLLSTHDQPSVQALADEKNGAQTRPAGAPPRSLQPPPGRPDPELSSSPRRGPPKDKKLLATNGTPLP
As to conditions: BRSK1; for remaining activity at 1 µM: read-out: % of control at 1 µM.

Experiment [9] deals with T9, panel of 442 kinases (Homo sapiens, UniProt P36888, N841I).
T9 construct: purchased Ambit Biosciences (scanMAXX KINOMEscan)
T9 sequence (P36888 27-993 N841I): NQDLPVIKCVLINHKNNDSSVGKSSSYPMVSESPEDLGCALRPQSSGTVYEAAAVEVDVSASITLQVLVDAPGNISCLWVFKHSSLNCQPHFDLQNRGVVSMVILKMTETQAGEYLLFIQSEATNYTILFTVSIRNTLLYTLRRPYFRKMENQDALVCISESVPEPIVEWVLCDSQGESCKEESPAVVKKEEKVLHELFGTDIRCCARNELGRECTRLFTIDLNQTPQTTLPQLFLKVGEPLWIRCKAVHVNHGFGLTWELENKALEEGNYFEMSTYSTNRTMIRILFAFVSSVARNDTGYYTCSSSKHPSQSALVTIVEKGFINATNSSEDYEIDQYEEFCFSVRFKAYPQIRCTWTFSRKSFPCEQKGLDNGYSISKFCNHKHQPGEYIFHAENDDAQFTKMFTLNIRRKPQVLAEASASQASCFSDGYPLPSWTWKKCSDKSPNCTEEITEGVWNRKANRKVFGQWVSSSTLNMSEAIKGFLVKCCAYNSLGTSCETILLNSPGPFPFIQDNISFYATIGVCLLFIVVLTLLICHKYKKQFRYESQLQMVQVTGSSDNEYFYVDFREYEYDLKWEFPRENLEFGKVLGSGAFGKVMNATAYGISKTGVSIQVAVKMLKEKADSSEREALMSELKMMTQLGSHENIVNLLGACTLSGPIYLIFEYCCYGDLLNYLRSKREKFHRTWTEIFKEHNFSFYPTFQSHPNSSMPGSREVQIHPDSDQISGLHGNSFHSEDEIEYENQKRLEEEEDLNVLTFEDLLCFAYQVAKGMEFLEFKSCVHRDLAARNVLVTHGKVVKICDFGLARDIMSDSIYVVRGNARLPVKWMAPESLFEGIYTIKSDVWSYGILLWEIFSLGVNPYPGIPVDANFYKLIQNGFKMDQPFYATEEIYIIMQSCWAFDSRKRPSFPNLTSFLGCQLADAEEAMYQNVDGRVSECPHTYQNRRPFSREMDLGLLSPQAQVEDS
Particulars: kinase FLT3(N841I); for remaining activity at 1 µM: read-out: % of control at 1 µM.

[10] abbreviates: 10 µM, read-out: % of control at 10 µM.

T4 sequence (Q9Y6M4 whole entry): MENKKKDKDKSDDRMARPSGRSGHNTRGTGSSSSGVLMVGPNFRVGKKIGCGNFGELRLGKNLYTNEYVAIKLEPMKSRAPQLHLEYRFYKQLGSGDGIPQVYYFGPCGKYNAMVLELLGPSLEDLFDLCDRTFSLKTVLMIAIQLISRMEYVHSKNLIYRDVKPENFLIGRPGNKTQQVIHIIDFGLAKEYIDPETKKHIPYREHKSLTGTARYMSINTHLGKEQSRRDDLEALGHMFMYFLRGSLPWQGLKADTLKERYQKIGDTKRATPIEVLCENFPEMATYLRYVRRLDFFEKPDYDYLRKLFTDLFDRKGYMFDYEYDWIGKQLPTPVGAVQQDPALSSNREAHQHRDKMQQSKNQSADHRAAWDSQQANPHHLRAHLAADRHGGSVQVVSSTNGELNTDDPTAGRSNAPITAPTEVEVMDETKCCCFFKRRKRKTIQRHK
T3 sequence (O14578 whole entry): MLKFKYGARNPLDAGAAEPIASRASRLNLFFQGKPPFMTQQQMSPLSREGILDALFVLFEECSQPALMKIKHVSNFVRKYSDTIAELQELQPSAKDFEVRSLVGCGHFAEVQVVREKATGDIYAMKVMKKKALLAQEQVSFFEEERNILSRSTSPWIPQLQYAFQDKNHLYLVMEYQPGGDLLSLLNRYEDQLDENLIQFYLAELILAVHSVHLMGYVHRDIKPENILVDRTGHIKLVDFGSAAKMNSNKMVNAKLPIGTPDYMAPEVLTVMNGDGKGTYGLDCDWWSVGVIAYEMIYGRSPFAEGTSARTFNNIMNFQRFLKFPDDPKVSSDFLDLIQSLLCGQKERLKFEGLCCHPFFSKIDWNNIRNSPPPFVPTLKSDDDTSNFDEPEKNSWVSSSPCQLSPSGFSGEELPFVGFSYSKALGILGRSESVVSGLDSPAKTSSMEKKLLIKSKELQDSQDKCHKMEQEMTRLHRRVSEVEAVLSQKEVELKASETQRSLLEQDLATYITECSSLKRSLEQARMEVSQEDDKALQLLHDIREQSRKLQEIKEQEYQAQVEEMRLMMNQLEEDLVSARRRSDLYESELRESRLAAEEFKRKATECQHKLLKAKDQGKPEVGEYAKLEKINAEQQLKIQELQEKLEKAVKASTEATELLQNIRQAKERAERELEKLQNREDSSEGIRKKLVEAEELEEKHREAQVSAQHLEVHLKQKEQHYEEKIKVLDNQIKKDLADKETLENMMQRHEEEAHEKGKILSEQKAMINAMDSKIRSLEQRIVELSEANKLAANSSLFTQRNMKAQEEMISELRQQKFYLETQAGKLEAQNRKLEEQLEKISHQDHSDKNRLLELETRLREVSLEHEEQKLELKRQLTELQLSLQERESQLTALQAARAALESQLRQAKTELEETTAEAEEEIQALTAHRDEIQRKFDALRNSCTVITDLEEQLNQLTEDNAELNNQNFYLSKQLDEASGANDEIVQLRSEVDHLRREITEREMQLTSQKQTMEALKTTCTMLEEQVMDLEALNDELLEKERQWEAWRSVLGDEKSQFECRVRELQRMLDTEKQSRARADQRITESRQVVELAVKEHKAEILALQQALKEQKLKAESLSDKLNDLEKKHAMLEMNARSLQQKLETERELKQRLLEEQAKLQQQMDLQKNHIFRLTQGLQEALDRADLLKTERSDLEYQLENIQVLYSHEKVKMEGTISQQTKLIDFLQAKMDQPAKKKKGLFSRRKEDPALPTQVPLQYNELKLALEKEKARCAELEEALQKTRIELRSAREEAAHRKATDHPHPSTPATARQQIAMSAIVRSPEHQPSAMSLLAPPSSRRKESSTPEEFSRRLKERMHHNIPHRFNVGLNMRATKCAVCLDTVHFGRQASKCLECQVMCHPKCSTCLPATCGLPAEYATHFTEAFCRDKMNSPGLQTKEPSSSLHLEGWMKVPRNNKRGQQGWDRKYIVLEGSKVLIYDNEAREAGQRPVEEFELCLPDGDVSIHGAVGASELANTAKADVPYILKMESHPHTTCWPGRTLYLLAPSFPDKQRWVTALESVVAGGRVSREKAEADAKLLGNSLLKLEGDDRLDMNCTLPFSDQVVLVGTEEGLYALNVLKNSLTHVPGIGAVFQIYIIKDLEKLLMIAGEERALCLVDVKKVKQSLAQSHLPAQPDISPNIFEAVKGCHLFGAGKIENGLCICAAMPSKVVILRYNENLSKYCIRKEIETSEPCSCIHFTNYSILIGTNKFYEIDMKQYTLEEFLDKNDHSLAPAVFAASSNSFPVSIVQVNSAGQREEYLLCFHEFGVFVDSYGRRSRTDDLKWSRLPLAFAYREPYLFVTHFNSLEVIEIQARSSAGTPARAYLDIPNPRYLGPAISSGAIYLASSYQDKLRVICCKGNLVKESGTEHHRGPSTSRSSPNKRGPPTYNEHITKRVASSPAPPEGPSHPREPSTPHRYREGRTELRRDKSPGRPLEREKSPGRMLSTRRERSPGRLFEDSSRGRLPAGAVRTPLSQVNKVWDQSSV

On to `Nc1cc(C(F)(F)F)c(-c2cc(N3CCOCC3)nc(N3CCOCC3)n2)cn1` [Buparlisib], for which the remaining activity at 1 µM on panel of 442 kinases [1] was 100%; at panel of 442 kinases [2], 99%; on panel of 442 kinases [3], 100%; on panel of 442 kinases [4] it was 100%; at panel of 442 kinases [5], 91%; at panel of 442 kinases [6], 99%. For the same compound, the remaining activity at 1 µM on panel of 442 kinases [7] turned out to be 82%; at panel of 442 kinases [8], 100%; at panel of 442 kinases [9] it was 86%. Further, the remaining activity at 10 µM on panel of 442 kinases [1] (setting [10]) came to 99%; at panel of 442 kinases [2] (setting [10]), 100%; on panel of 442 kinases [3] (setting [10]) it was 100%; at panel of 442 kinases [4] (setting [10]) it was 100%; at panel of 442 kinases [5] (setting [10]), 77%; at panel of 442 kinases [6] (setting [10]) it was 100%. For the same compound, the values for the remaining activity at 10 µM on panel of 442 kinases [7] (setting [10]), on panel of 442 kinases [8] (setting [10]) and on panel of 442 kinases [9] (setting [10]) were 71%, 100% and 97%, respectively.

Take `Cn1c(=O)n(-c2ccc(C(C)(C)C#N)cc2)c2c3cc(-c4cnc5ccccc5c4)ccc3ncc21` [Dactolisib, 2-methyl-2-[4-(3-methyl-2-oxo-8-quinolin-3-yl-2,3-dihydroimidazo[4,5-c]quinolin-1-yl)-phenyl] propionitrile]: the remaining activity at 1 µM on panel of 442 kinases [2] was determined as 78%; at panel of 442 kinases [3] it was 65%; on panel of 442 kinases [4], 72%; on panel of 442 kinases [5], 74%; at panel of 442 kinases [6] it was 100%; at panel of 442 kinases [7] it was 54%. The figures for the remaining activity at 1 µM on panel of 442 kinases [8] and on panel of 442 kinases [9] were 83% and 24%, respectively.

On to `FC(F)c1nc2ccccc2n1-c1nc(N2CCOCC2)nc(N2CCOCC2)n1` [ZSTK474, 2-(difluoromethyl)-1-[4,6-di(4-morpholinyl)-1,3,5-triazin-2-yl]-1H-benzimidazole], for which the remaining activity at 1 µM on panel of 442 kinases [1] was determined as 92%; on panel of 442 kinases [2], 73%; at panel of 442 kinases [3], 100%; on panel of 442 kinases [4] it was 100%; at panel of 442 kinases [5] it was 94%; at panel of 442 kinases [6], 96%. Also, the remaining activity at 1 µM at panel of 442 kinases [7] worked out at 92%; at panel of 442 kinases [8], 98%; at panel of 442 kinases [9] it was 90%.

Regarding `COc1ncc(-c2ccc3nccc(-c4ccnnc4)c3c2)cc1NS(=O)(=O)c1ccc(F)cc1F` [Omipalisib], the remaining activity at 1 µM on panel of 442 kinases [1] came to 100%; at panel of 442 kinases [2], 93%; on panel of 442 kinases [3], 100%; at panel of 442 kinases [4] it was 100%; at panel of 442 kinases [5] it was 92%; on panel of 442 kinases [6] it was 100%. The remaining activity at 1 µM at panel of 442 kinases [7] stood at 100%; at panel of 442 kinases [8], 100%; at panel of 442 kinases [9], 70%.

These data come from paper PMC5564600 (Oncotarget, 2017).
